Values quoted from earlier work as cited in patent EP3315966A1, “STANDARD THYROID GLAND HORMONE SOLUTION” (Fujirebio Inc., priority 2015, dated 2017).

Settings: buffer substance of the standard solution

O=S(=O)(O)CCCNC1CCCCC1 [CAPS, N-cyclohexyl-3-aminopropanesulfonic acid]
pKa: 10.4
